# Source: publication PMC8400257, “2-Phenoxy-3-Trichloromethylquinoxalines Are Antiplasmodial Derivatives with Activity against the Apicoplast of Plasmodium falciparum” (Pharmaceuticals, 2021)
# “Also recorded” adds a separate entry of the source.
# How the values were obtained:
# [1] = test system: P. falciparum apicoplast; test: Immunofluorescence assay of apicoplast biogenesis on treated blood-stage parasites; assay type: cell-based, Plasmodium falciparum; conditions: 48 h, 0.2 µM
# Protocol: To determine the impact of (3i) on apicoplast biogenesis, parasites were treated for 48 h with 0.2 µM of (3i) or 0.2 µM of (2i) (a control of (3i) for which the active CCl3 was replaced by a methyl CH3 group) and compared to untreated parasites by immunofluorescence assay. […] In order to determine if the apicoplast is the main target of (3i), we performed a growth assay over three life cycles to assess a potential delayed death effect, one of the major signature for compounds affecting apicoplast. […] The second interpretation could be that, unlike chloramphenicol or doxycycline, which cause a delayed death phenotype on Plasmodium, (3i) could act like fosmidomycin or actinonin and cause a rapid death phenotype.
# Plasmodium falciparum blood stage parasites were maintained at 2% hematocrit in 1640 RPMI-HEPES, supplemented with 5% AlbuMAX II (GIBCO) and 0.25% gentamycin. Parasites were grown sealed Perspex chambers gassed with beta mix gas (1% O2, 5% CO2 and 94% N2) at 37 °C and maintained on 48-h cycles. Cultures were tightly synchronized at ring stage using sorbitol treatment (5% v/v) as previously described.
# Prior to the treatment, parasites were synchronized using 5% sorbitol. After 48 h treatment ([…] or DMSO) parasites were fixed using 4% paraformaldehyde (PFA) and 0.0075% glutaraldehyde for 30 min at room temperature. […]
# [2] = test system: K1 chloroquine and pyrimethamine-resistant P. falciparum strain; test: In vitro antiplasmodial evaluation (SYBR Green I); assay type: cell-based, Plasmodium falciparum
# Protocol: For all molecules, the selectivity index was calculated as following SI = CC50/EC50.
# It was maintained in continuous culture, as described previously by Trager and Jensen. Cultures were maintained in fresh A+ human erythrocytes at 2.5% hematocrit in complete medium (RPMI 1640 with 25 mM HEPES, 25 mM NaHCO3, 10% of A+ human serum) at 37 °C under reduced O2 atmosphere (gas mixture 10% O2, 5% CO2, and 85% N2). Parasitemia was maintained daily between 1 and 3%. The P. falciparum drug susceptibility test was carried out by comparing quantities of DNA in treated and control cultures of parasite in human erythrocytes according to an SYBR Green I fluorescence-based method using a 96-well fluorescence plate reader. Compounds, previously dissolved in DMSO (final concentration less than 0.5% v/v), were incubated in a total assay volume of 200 μL (RPMI, 2% hematocrit and 0.4% parasitemia) for 72 h in a humidified atmosphere (10% O2 and 5% CO2) at 37 °C, in 96-well flat bottom plates. Duplicate assays were performed for each sample. After incubation, plates were frozen at […] for 24 h. Then, the frozen plates were thawed for 1 h at 37 °C. Fifteen µL of each sample were transferred to 96-well flat bottom non-sterile black plates (Greiner Bio-one, Kremsmünster, Austria), already containing 15 µL of the SYBR Green I lysis buffer (2X SYBR Green I, 20 mM Tris base pH 7.5, 20 mM EDTA, 0.008% w/v saponin, 0.08% w/v Triton X-100). […] Plates were incubated for 15 min at 37 °C and then read on a TECAN Infinite F-200 spectrophotometer with excitation and emission wavelengths at 485 and 535 nm, respectively.
smiles,measurement,setting,value
"O=[N+]([O-])c1ccc(Oc2nc3ccccc3nc2C(Cl)(Cl)Cl)cc1 [3i, 2-(4-Nitrophenoxy)-3-trichloromethylquinoxaline]",Effect on apicoplast biogenesis (immunofluorescence),[1],effect on the apicoplast biogenesis; also recorded: doted single non-elongated apicoplast at the mid-trophozoite life stage
same,EC50,"[2]; Plasmodium falciparum, K1, 72 h, K1 strain, 72 h incubation, three independent experiments, read-out: EC50 PfK1 (µM) ± SD",0.2 ± 0.04 µM
same,SI (selectivity index),[2]; SI = CC50 HepG2/EC50 PfK1,160.0
